For 14 compounds, EC50 and Emax results are on record in patent US20230000842A1, “METHODS OF TREATING CARTILAGE DISORDERS THROUGH INHIBITION OF CLK AND DYRK” (SAMUMED, LLC, priority 2019, published 2023).

The target in one test is CLK2 kinase (Homo sapiens, UniProt P49760). Description: CLK2 kinase activity assay (Z-lyte FRET).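 Further: FRET read-out as coumarin to fluorescein emission ratio, unphosphorylated peptide as 0% and phosphorylated peptide as 100% controls, duplicate reactions, non-linear regression fit of dose-response curves.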 It is filed as biochemical. The settings on record: Z-lyte Ser/Thr 6 peptide, 60 μM ATP, 1 h at room temperature.
For test [1], the system named is Wnt pathway activity (SW480 colon carcinoma cells stably expressing the Sp5-Luc reporter). Briefly: Wnt pathway activity screening assay (Sp5-Luc reporter gene assay). As to conditions: Homo sapiens, SW480, Table 4; SW480 cells stably expressing Sp5-Luc reporter, 10-point dose-response from 10 μM, 36 to 48 hours.
Test [2] has as its system MMP-3 levels in supernatant of chondrocytes stimulated with IL1-β. Briefly: Chondrocyte protection assay compound screening (MMP-3 LANCE Ultra). In kind it is cell-based, human. The settings on record: Homo sapiens, Chondrocyte, IL1-β 10 ng/mL overnight, 11-point curves from 3 μM to 0.05 nM; for Emax: read-out: Maximum % Inhibition. Summed up:
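Primary human chondrocytes (passage 2–5) in differentiation medium were stimulated with 10 ng/mL IL1-β for an overnight incubation at 37 °C. MMP-3 in 1:7-diluted supernatant was read by TR-FRET immunoassay against a standard curve, normalised to IL1-β-stimulated wells; EC50 and maximum % inhibition came from nonlinear regression.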
On the technique in general: TR-FRET usually uses a lanthanide donor and a delayed reading to cut background.

The next test concerns the target CLK3 kinase (Homo sapiens, UniProt P49761). Description: CLK3 kinase activity assay (Z-lyte FRET).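 Further: kinase activity read as coumarin/fluorescein emission ratio by FRET, unphosphorylated peptide as 0% and phosphorylated peptide as 100% control, values from non-linear regression of dose-response curves.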 It is filed as biochemical. The settings on record: Z-lyte Ser/Thr 18 peptide, 156 μM ATP, 1 h at room temperature.

Sequence of CLK3 kinase (P49761 whole entry): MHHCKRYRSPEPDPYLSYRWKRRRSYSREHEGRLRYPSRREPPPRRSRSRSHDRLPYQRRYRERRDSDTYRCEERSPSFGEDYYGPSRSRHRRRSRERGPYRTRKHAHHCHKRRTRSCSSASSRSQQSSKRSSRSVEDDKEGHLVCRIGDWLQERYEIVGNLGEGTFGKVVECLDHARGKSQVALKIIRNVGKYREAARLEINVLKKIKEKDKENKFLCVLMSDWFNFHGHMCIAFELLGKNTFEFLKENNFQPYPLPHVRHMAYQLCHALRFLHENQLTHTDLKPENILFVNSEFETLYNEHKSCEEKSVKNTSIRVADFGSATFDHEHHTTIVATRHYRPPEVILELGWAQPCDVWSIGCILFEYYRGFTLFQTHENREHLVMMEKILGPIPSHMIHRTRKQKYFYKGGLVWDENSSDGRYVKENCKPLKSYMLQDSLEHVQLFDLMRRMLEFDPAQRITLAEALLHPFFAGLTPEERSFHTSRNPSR
Sequence of CLK2 kinase (P49760 whole entry): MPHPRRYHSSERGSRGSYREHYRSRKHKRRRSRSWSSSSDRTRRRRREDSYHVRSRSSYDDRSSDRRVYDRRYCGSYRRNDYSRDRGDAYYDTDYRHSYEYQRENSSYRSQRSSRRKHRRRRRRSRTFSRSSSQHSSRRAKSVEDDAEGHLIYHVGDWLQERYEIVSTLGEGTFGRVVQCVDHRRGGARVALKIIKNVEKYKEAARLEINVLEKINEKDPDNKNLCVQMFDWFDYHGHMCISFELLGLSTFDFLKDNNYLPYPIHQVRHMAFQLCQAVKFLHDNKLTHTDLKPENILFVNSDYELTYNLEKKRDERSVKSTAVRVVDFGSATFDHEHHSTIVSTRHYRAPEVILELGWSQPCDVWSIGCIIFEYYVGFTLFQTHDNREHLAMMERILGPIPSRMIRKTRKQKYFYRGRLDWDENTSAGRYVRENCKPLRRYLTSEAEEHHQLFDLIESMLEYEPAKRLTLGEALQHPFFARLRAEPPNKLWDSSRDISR
Description for CLK2 kinase: This is a non-radioactive assay using fluorescence resonance energy transfer (FRET) between coumarin and fluorescein to detect kinase activity which is represented as a ratio of coumarin emission/fluorescein emission.
The mixture was allowed to incubate with the representative compounds for one hour at room temperature. All reactions were performed in duplicate. Unphosphorylated (“0% Control”) and phosphorylated (“100% control”) forms of Ser/Thr 6 served as control reactions. Additionally, an 11-point dose-response curve of Staurosporine (1 μM top) was run to serve as a positive compound control.
After incubation, Development Reagent A was diluted in Development Buffer then added to the reaction and allowed to further incubate for one hour at room temperature.
Dose-response curves were generated and inhibitory concentration (IC50) values were calculated using non-linear regression curve fit in the Dotmatics' Studies Software (Bishops Stortford, UK).

A word on the EC50: it is the concentration at which the effect is half-maximal. High values mean a need for much substance, low ones an effect from little substance. Consider `O=C(Nc1ccc(N2CCNCC2)nc1)c1n[nH]cc1/C=C/c1cccnc1` [compound 20], for which the EC50 on CLK2 kinase was 0.005 µM; in test [1], 1.65 µM; in test [2] it was 0.0002 µM; on CLK3 kinase, 0.563 µM. Moreover, the Emax in test [2] was found to be 72.6%.
For `O=C(Nc1ccc(C(=O)N2CCCC2)nc1)c1n[nH]c2ccc(-c3cncc(CN4CCCCC4)c3)cc12` [compound 88], in that order: 0.001 µM, 0.03 µM, no less than 3 µM, 0.012 µM and 100%.
For `CCNCc1cncc(-c2ccc3[nH]nc(-c4nc5c(-c6ccccn6)nccc5[nH]4)c3c2)c1` [compound 199], in that order: 0.002 µM, 2.13 µM, 0.0024 µM, 0.136 µM and 80.9%.
For `Cc1ncc(NC(=O)c2n[nH]c3ccc(-c4cnn(C5CCN(C)CC5)c4)cc23)s1` [compound 114], in that order: 0.001 µM, 0.095 µM, no less than 3 µM, 0.048 µM and 62.8%.
Take `O=C(Nc1ccc(CN2CCCC2)cc1)c1n[nH]c2ccc(-c3cccnc3F)cc12` [compound 65]: the 50% effective concentration (EC50) is 0.001 µM at CLK2 kinase, 0.196 µM in test [1], no less than 3 µM in test [2] and 0.047 µM on CLK3 kinase. The Emax in test [2] came out at 98.1%.
For `CN1CC=C(c2cc(C(=O)Nc3cc4cc(-c5cncc(NC(C)(C)C)n5)cnc4cn3)ccn2)CC1` [compound 612], the 50% effective concentration (EC50) on CLK2 kinase is 0.005 µM; in test [1] it was 0.357 µM; in test [2] it was no less than 3 µM; at CLK3 kinase it was 0.012 µM. The Emax in test [2] turned out to be 38.6%.
For `c1cnc2cc(-c3n[nH]c4ccc(-c5cncc(CN6CCCCC6)c5)cc34)[nH]c2c1` [compound 449], in that order: 0.002 µM, 0.165 µM, 0.319 µM, 0.019 µM and 100%.
For `Cc1n[nH]c2ccc(-c3cncc(OCC4(F)CNC4)n3)cc12` [compound 49], in that order: 0.006 µM, 3.25 µM, 0.0035 µM, 2.2 µM and 66.1%.
`Cc1[nH]nc(C(=O)Nc2ccc(CN3CCCC3)cc2)c1/C=C/c1cccnc1` [compound 18]: the EC50 at CLK2 kinase came to 0.02 µM; in test [1] it was 2.15 µM; in test [2], 1.05 µM; at CLK3 kinase, 3.99 µM. In addition, the Emax in test [2] worked out at 25.5%.
For `Cc1ncc(C(=O)Nc2cc3nc(-c4cnc(C)n4C)ccc3cn2)s1` [compound 611], in that order: 0.003 µM, 0.107 µM, 0.0087 µM, 0.031 µM and 68.3%.
In the case of `CC(C)CC(=O)Nc1cncc(-c2cnc3[nH]nc(-c4nc5c(-c6cccc(F)c6)cncc5[nH]4)c3c2)c1` [compound 125], the EC50 is 0.001 µM on CLK2 kinase, 0.0006 µM in test [1], no less than 3 µM in test [2] and 0.057 µM on CLK3 kinase.
As for `CC(C)n1cc(C(=O)Nc2cc3cc(-c4cncn4C)ccc3cn2)cn1` [compound 585], the 50% effective concentration (EC50) on CLK2 kinase amounted to 0.001 µM; in test [1], 0.0348 µM; in test [2] it was 1.43 µM; at CLK3 kinase it was 0.013 µM. Moreover, the Emax in test [2] amounted to 77.9%.
For `Cc1n[nH]c2ccc(-c3cncc(N4CCC[C@H](N)C4)n3)cc12` [compound 38], in that order: 0.035 µM, 1.43 µM, no less than 3 µM, 8.01 µM and 97.5%.
For `CN1CCC(Oc2ccc(NC(=O)c3n[nH]c4ccc(-c5ccc(N)nc5)cc34)cc2)CC1` [compound 66], in that order: 0.001 µM, 0.477 µM, 0.0049 µM, 0.049 µM and 62.6%.
